Test results from patent publication US10793568B2, “Hormone receptor modulators for treating metabolic conditions and disorders” (ARDELYX, INC., priority 2016, dated 2020).
Like-named read-outs stand apart in the source and are kept apart here.

Key:
[1] = biological target: human Farnesoid X receptor ligand-binding domain/Gal4 DNA binding domain chimera (Homo sapiens (Human), UniProt Q96RI1); experiment: Cell-based assay of FXR activation (FXR-UAS-bla HEK 293T beta-lactamase reporter); conditions: cellular FXR beta-lactamase reporter assay; for Emax: HEK-293T, extent of activation relative to GW4064, read-out: % Efficacy; for EC50: FXR-UAS-bla HEK 293T cells, 16 h, pEC50 = -log EC50
Sequence of human Farnesoid X receptor ligand-binding domain/Gal4 DNA binding domain chimera (Q96RI1 262-486, change not shown): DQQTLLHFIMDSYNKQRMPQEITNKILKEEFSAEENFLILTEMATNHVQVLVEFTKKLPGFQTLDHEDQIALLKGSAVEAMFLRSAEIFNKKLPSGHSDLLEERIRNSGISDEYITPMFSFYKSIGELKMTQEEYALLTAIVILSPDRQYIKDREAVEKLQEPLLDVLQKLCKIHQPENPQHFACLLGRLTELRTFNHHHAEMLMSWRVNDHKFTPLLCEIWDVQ
Sequence of human Farnesoid X receptor ligand-binding domain/Gal4 DNA binding domain chimera (P04386 1-147 partner): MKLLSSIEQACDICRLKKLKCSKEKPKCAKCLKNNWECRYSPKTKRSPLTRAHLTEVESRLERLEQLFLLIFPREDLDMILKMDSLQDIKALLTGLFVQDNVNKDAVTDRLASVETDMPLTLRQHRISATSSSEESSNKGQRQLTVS
Outline: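 Readout is cleavage of the CCF4 FRET substrate (409 nm excitation, blue 447 nm signal) by beta-lactamase, expressed under UAS control after a Gal4–human FXR LBD chimera is activated in HEK 293T cells. Compounds were added as 3-fold dilutions for 16 h at 37 °C in 2% charcoal-stripped FBS medium. Curves were fit to a 3-parameter logistic equation to give pEC50, with % activation relative to GW4064.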

[2] = biological target: ligand binding domain of human FXR (Homo sapiens (Human), UniProt Q96RI1); experiment: FXR ligand binding assay (LanthaScreen TR-FRET, SRC2-2 peptide recruitment); conditions: for Emax: read-out: % Efficacy
Sequence of ligand binding domain of human FXR (Q96RI1 262-486): as the sequence (Q96RI1 262-486, change not shown) above

[3] = -log EC50, concentration required to produce 50% activation
[4] = extent of activation relative to GW4064

Row | EC50 [2, 3] | SMILES | Emax [1] | EC50 [1] | pEC50 [2, 3] | Emax [2, 4] | Emax [2]
1 |  | O=C(O)c1cc(C2CCOC2)c2nc(N3C[C@@H]4C[C@H]3C[C@H]4OCc3c(-c4c(Cl)cccc4Cl)noc3C3CC3)sc2c1 (stereo partly drawn) [Compound I-251, 2-[(1S,4S,5R)-5-{[5-cyclopropyl-3-(2,6-dichlorophenyl)-1,2-oxazol-4-yl]methoxy}-2-azabicyclo[2.2.1]heptan-2-yl]-4-(oxolan-3-yl)-1,3-benzothiazole-6-carboxylic Acid] | 110% | 0.2 nM | 9.1 | 133% | 
2 |  | O=C(O)c1cc(F)c2nc(N3C[C@H]4C[C@@H]3[C@H](OC(=O)c3c(-c5c(Cl)cccc5Cl)noc3C3CC3)C4)sc2c1 [Compound I-63, 2-[(1R,4S,6R)-6-[5-cyclopropyl-3-(2,6-dichlorophenyl)-1,2-oxazole-4-carbonyloxy]-2-azabicyclo[2.2.1]heptan-2-yl]-4-fluoro-1,3-benzothiazole-6-carboxylic Acid] |  | < 31600 nM | 8.7 | 13% | 
3 |  | O=C(NS(=O)(=O)C1CC1)c1ccc(N2C[C@@H]3C[C@H]2C[C@H]3OCc2c(-c3c(Cl)cccc3Cl)noc2C2CC2)cc1F [Compound I-195, 4-((1S,4S,5R)-5-((5-cyclopropyl-3-(2,6-dichlorophenyl)isoxazol-4-yl)methoxy)-2-azabicyclo[2.2.1]heptan-2-yl)-N-(cyclopropylsulfonyl)-2-fluorobenzamide] | 109% | 0.316 nM | 8.8 | 144% | 
4 |  | CCCS(=O)(=O)NC(=O)c1ccc(N2C[C@@H]3C[C@H]2C[C@H]3OC(=O)c2c(-c3c(Cl)cccc3Cl)noc2C2CC2)c(F)c1 [Compound I-49, (1S,4S,5R)-2-{2-fluoro-4-[(propane-1-sulfonyl)carbamoyl]phenyl}-2-azabicyclo[2.2.1]heptan-5-yl 5-cyclopropyl-3-(2,6-dichlorophenyl)-1,2-oxazole-4-carboxylate] | 118% | 3.98 nM | 8 | 188% | 
5 |  | COc1ccccc1-c1noc(C2CC2)c1CO[C@@H]1C[C@@H]2C[C@H]1CN2c1nc2c(F)cc(C(=O)O)cc2s1 [Compound I-288, 2-((1S,4S,5R)-5-((5-cyclopropyl-3-(2-methoxyphenyl)isoxazol-4-yl)methoxy)-2-azabicyclo[2.2.1]heptan-2-yl)-4-fluorobenzo[d]thiazole-6-carboxylic acid] | 112% | 3.98 nM | 8 | 188% | 
6 |  | O=C(O)c1cc(O[C@@H]2CCOC2)c2nc(N3C[C@@H]4C[C@H]3C[C@H]4OCc3c(-c4c(Cl)cccc4Cl)noc3C3CC3)sc2c1 [Compound I-261, 2-[(1S,4S,5R)-5-{[5-cyclopropyl-3-(2,6-dichlorophenyl)-1,2-oxazol-4-yl]methoxy}-2-azabicyclo[2.2.1]heptan-2-yl]-4-[(3R)-oxolan-3-yloxy]-1,3-benzothiazole-6-carboxylic Acid] | 110% | 0.398 nM | 8.6 | 161% | 
7 |  | O=C(O)c1cc(F)c2nc(N3C[C@@H]4C[C@H]3C[C@H]4OCc3c(-c4cccc(O)c4)noc3C3CC3)sc2c1 [Compound I-292, 2-((1S,4S,5R)-5-((5-cyclopropyl-3-(3-hydroxyphenyl)isoxazol-4-yl)methoxy)-2-azabicyclo[2.2.1]heptan-2-yl)-4-fluorobenzo[d]thiazole-6-carboxylic acid] |  | < 31.6 nM | 6.5 | 120% | 
8 |  | Cc1cccc(Cl)c1-c1noc(C2CC2)c1CO[C@@H]1C[C@@H]2C[C@H]1C(=O)N2c1ccc(C(=O)O)cc1 [Compound I-309, 4-[(1S,4R,5R)-5-{[3-(2-chloro-6-methylphenyl)-5-cyclopropyl-1,2-oxazol-4-yl]methoxy}-3-oxo-2-azabicyclo[2.2.1]heptan-2-yl]benzoic Acid] | 104% | 1.58 nM | 8.2 | 157% | 
9 |  | Cc1cc(C(=O)NCCP(=O)(O)O)ccc1N1C[C@@H]2C[C@H]1C[C@H]2OCc1c(-c2c(Cl)cccc2Cl)noc1C1CC1 [Compound I-173, [2-({4-[(1S,4S,5R)-5-{[5-cyclopropyl-3-(2,6-dichlorophenyl)-1,2-oxazol-4-yl]methoxy}-2-azabicyclo[2.2.1]heptan-2-yl]-3-methylphenyl}formamido)ethyl]phosphonic Acid] | 114% | 100 nM | 9.2 |  | 144%
10 |  | O=C(O)c1cc(F)c2nc(N3C[C@@H]4C[C@H](OC(=O)c5c(-c6c(Cl)cccc6Cl)noc5C5CC5)[C@H]3C4)sc2c1 [Compound I-64, 2-[(1R,4S,6S)-6-[5-cyclopropyl-3-(2,6-dichlorophenyl)-1,2-oxazole-4-carbonyloxy]-2-azabicyclo[2.2.1]heptan-2-yl]-4-fluoro-1,3-benzothiazole-6-carboxylic Acid] | 55% | 501 nM | >4.5 |  | 
11 |  | O=C(O)c1cc(C2CCOC2)c2nc(N3C(=O)[C@@H]4C[C@H]3C[C@H]4OCc3c(-c4c(Cl)cccc4Cl)noc3C3CC3)sc2c1 (stereo partly drawn) [Compound I-299, 2-((1S,4R,5R)-5-((5-cyclopropyl-3-(2,6-dichlorophenyl)isoxazol-4-yl)methoxy)-3-oxo-2-azabicyclo[2.2.1]heptan-2-yl)-4-(tetrahydrofuran-3-yl)benzo[d]thiazole-6-carboxylic acid] | 108% | 3.98 nM | 8 | 112% | 
12 |  | O=C(O)c1cc(C(F)(F)F)c2nc(N3C[C@@H]4C[C@H]3C[C@H]4OCc3c(-c4c(Cl)cccc4Cl)noc3C3CC3)sc2c1 [Compound I-15, 2-[(1S,4S,5R)-5-{[5-cyclopropyl-3-(2,6-dichlorophenyl)-1,2-oxazol-4-yl]methoxy}-2-azabicyclo[2.2.1]heptan-2-yl]-4-(trifluoromethyl)-1,3-benzothiazole-6-carboxylic acid] | 104% | 0.251 nM | 7.8 | 150% | 
13 |  | O=C(O)c1cc(F)c2nc(N3C[C@@H]4C[C@H]3C[C@H]4OCc3c(-c4c(Cl)cccc4Cl)noc3C3(F)CC3)sc2c1 [Compound I-24, 2-[(1S,4S,5R)-5-{[3-(2,6-dichlorophenyl)-5-(1-fluorocyclopropyl)-1,2-oxazol-4-yl]methoxy}-2-azabicyclo[2.2.1]heptan-2-yl]-4-fluoro-1,3-benzothiazole-6-carboxylic Acid] | 102% | 0.631 nM | 7.9 | 180% | 
14 |  | COc1cccc(-c2noc(C3CC3)c2CO[C@@H]2C[C@@H]3C[C@H]2CN3c2nc3c(F)cc(C(=O)O)cc3s2)c1 [Compound I-289, 2-((1S,4S,5R)-5-((5-cyclopropyl-3-(3-methoxyphenyl)isoxazol-4-yl)methoxy)-2-azabicyclo[2.2.1]heptan-2-yl)-4-fluorobenzo[d]thiazole-6-carboxylic acid] |  | < 31.6 nM | 6.9 | 70% | 
15 |  | O=C(O)c1ccc(N2C[C@@H]3C[C@H]2C[C@H]3OCc2c(-c3c(F)cccc3Cl)noc2C2CC2)cc1 [Compound I-118, 4-[(1S,4S,5R)-5-{[3-(2-chloro-6-fluorophenyl)-5-cyclopropyl-1,2-oxazol-4-yl]methoxy}-2-azabicyclo[2.2.1]heptan-2-yl]benzoic Acid] | 108% | 7.94 nM | 8.6 | 145% | 
16 | 10 nM | CCCS(=O)(=O)NC(=O)c1ccc(N2C[C@@H]3C[C@H]2C[C@H]3OCc2c(-c3c(Cl)cccc3Cl)noc2C2(F)CC2)nc1 [Compound I-208, 6-[(1S,4S,5R)-5-[[3-(2,6-dichlorophenyl)-5-(1 I-fluorocyclopropyl)-1,2-oxazol-4-yl]methoxy]-2-azabicyclo[2.2.1]heptan-2-yl]-N-(propane-1-sulfonyl)pyridine-3-carboxamide] | 104% | 5.01 nM |  | 166% | 
17 |  | O=C(O)c1ccc(N2C[C@@H]3C[C@H]2C[C@H]3OCc2c(-c3c(Cl)cccc3Cl)noc2C2(F)CC2)cc1 [Compound I-56, 4-[(1S,4S,5R)-5-{[3-(2,6-dichlorophenyl)-5-(1-fluorocyclopropyl)-1,2-oxazol-4-yl]methoxy}-2-azabicyclo[2.2.1]heptan-2-yl]benzoic Acid] | 125% | 2 nM | 8.5 | 137% | 
18 |  | O=C(O)c1cc(F)c2nc(N3C[C@H]4C[C@@H]3[C@H](OCc3c(-c5c(Cl)cccc5Cl)noc3C3CC3)C4)sc2c1 [Compound I-65, 2-[(1R,4S,6R)-6-{[5-cyclopropyl-3-(2,6-dichlorophenyl)-1,2-oxazol-4-yl]methoxy}-2-azabicyclo[2.2.1]heptan-2-yl]-4-fluoro-1,3-benzothiazole-6-carboxylic Acid] | 52% | 100 nM | 6.9 |  | 45%
19 |  | O=C(O)CCc1ccc(N2C(=O)[C@@H]3C[C@H]2C[C@H]3OCc2c(-c3c(Cl)cccc3Cl)noc2C2CC2)cc1F [Compound I-305, 3-{4-[(1S,4R,5R)-5-{[5-cyclopropyl-3-(2,6-dichlorophenyl)-1,2-oxazol-4-yl]methoxy}-3-oxo-2-azabicyclo[2.2.1]heptan-2-yl]-2-fluorophenyl}propanoic Acid] | 98% | 3.16 nM | 7.5 | 121% | 
20 |  | O=C(O)c1ccc(N2C[C@@H]3C[C@H]2C[C@H]3OCc2c(-c3c(Cl)cccc3Cl)noc2C2CC2)cn1 [Compound I-128, 5-[(1S,4S,5R)-5-{[5-cyclopropyl-3-(2,6-dichlorophenyl)-1,2-oxazol-4-yl]methoxy}-2-azabicyclo[2.2.1]heptan-2-yl]pyridine-2-carboxylic Acid] | 93% | 10 nM | 7.8 | 110% | 
